Assay results taken from patent US7122321B2, “High throughput method for functionally classifying proteins identified using a genomics approach” (Johnson & Johnson Pharmaceutical Research & Development, …, priority 1997, dated 2006).
One block for each compound: values may come before it.

Experiments:
D(II) FGFR1 = molecular target: T1, D(II) FGFR1 (Homo sapiens, UniProt P11362); assay: functional probe library screen (microplate thermal shift assay) against D(II) FGFR1; type: binding; details: functional probe library Plate 1; for effect on thermal stability of D(II) FGFR1: 50 μM D(II) FGFR1
T1 construct: domain II of the fibroblast growth factor receptor 1 (D(II)FGFR1); hexa-histidine (N); made in house; host or cells: E. coli (renatured from inclusion bodies)
T1 sequence (P11362 158-246 limits assumed): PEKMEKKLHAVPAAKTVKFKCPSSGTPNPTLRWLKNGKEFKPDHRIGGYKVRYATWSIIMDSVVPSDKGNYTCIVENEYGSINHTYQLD
Text: The compounds in functional probe library Plate 1 was also employed to generate an activity spectrum for D(II) FGFR1. D(II) FGFR1 was cloned and expressed in E. coli. Recombinant D(II) FGFR1 was renatured from inclusion bodies essentially as described (Wetmore, D. R. et al., Proc. Soc. Mtg., San Diego, Calif. (1994)), except that a hexa-histidine tag was included at the N-terminus to facilitate recovery by affinity chromatography on a Ni^2+ chelate column (Janknecht, R. et al., Natl. Acad Sci. USA 88:8972–8976 (1991)). D(II) FGFR1 was further purified on a heparin-sepharose column (Kan, M. et al., Science 259:1918–1921 (1993); Pantoliano, M. W. et al., Biochemistry 33:10229–10248 (1994)). Purity was >95%, as judged by SDS-PAGE. The D(II) FGFR1 protein was concentrated to 12 mg/mL (˜1 mM) and stored at 4° C.
Reactions were prepared in 96-well polycarbonate microtitre plate v-bottom wells. The final concentration of D(II) FGFR1 was 50 μM in […], pH 8 in each well of a 96-well polycarbonate microtitre plate.
The fluorescence emission was measured at 460 nm.

human α-thrombin (human) [1] = molecular target: human α-thrombin (human) (UniProt P00734); assay: microplate thermal shift assay, 1 µM thrombin + 50 µM hirudin peptide alone
human α-thrombin (human) [2] = molecular target: human α-thrombin (human) (UniProt P00734); assay: microplate thermal shift assay, Kd at 298 K estimated, hirudin peptide binding thrombin in the presence of 50 µM 3DP-4660
human α-thrombin (human) [3] = molecular target: human α-thrombin (human) (UniProt P00734); assay: microplate thermal shift assay, Kd at Tm, hirudin peptide binding thrombin in the presence of 50 µM 3DP-4660
human α-thrombin (human) [4] = molecular target: human α-thrombin (human) (UniProt P00734); assay: microplate thermal shift assay, Kd at 298 K estimated, hirudin peptide binding thrombin in the presence of 200 µM heparin 5000
human α-thrombin (human) [5] = molecular target: human α-thrombin (human) (UniProt P00734); assay: microplate thermal shift assay, Kd at Tm, hirudin peptide binding thrombin in the presence of 200 µM heparin 5000
human α-thrombin (human) [6] = molecular target: human α-thrombin (human) (UniProt P00734); assay: microplate thermal shift assay, 50 µM hirudin peptide added to thrombin in the presence of 50 µM 3DP-4660 (shift against TH/3dp-4660)
human α-thrombin (human) [7] = molecular target: human α-thrombin (human) (UniProt P00734); assay: microplate thermal shift assay, 50 µM hirudin peptide added to thrombin in the presence of 200 µM heparin 5000 (shift against TH/Heparin 5000)
[8] = molecular target: T2, chicken liver dihydrofolate reductase (Gallus gallus, UniProt P00378); assay: microplate thermal shift assay, chicken DHFR; type: binding; details: for ΔTm of ligand complexed with DHFR: DHFR (chicken), single ligand 10 mM
T2 construct: chicken liver dihydrofolate reductase (DHFR, Sigma); purchased Sigma; host or cells: chicken liver
T2 sequence (P00378 1-189): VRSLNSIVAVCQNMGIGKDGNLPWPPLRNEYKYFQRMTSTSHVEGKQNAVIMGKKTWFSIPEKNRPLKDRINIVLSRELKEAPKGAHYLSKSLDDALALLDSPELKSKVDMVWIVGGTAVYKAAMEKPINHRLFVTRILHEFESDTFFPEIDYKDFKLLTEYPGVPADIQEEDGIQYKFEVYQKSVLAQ

[9] = molecular target: T3, Bovine liver dihydrofolate reductase (Bos taurus, UniProt P00376); assay: microplate thermal shift assay, bovine DHFR; type: binding; set-up: Bovine liver dihydrofolate reductase (DHFR, Sigma); purchased Sigma; host or cells: bovine liver; details: for ΔTm of ligand complexed with DHFR: DHFR (cow), single ligand 10 mM
T3 sequence (P00376 1-187): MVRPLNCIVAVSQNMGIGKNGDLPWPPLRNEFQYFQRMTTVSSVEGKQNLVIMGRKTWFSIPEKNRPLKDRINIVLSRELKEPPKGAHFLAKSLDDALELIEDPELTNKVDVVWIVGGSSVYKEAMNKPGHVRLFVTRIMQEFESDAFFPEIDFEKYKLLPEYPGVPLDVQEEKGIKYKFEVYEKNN

[10] = molecular target: T3, Bovine liver dihydrofolate reductase; assay: microplate thermal shift assay, bovine DHFR; type: binding; set-up: Kd; Kd; Tm of the thermal unfolding curve; control 47.2° C; control 50.8° C; ΔTm; details: FIG. 12
[11] = system: pigeon liver arylamine acetyltransferase; assay: microplate thermal shift assay, arylamine acetyltransferase; type: binding; details: Arylamine Acetyl transferase
[12] = molecular target: T4, porcine liver formimino glutamic acid transferase (Sus scrofa, UniProt P53603); assay: microplate thermal shift assay, formimino glutamic acid transferase; type: binding; details: Formimino L-Glutamic acid Transferase
T4 construct: porcine liver formimino glutamic acid transferase (FGT, Sigma); purchased Sigma; host or cells: porcine liver
T4 sequence (P53603 1-541): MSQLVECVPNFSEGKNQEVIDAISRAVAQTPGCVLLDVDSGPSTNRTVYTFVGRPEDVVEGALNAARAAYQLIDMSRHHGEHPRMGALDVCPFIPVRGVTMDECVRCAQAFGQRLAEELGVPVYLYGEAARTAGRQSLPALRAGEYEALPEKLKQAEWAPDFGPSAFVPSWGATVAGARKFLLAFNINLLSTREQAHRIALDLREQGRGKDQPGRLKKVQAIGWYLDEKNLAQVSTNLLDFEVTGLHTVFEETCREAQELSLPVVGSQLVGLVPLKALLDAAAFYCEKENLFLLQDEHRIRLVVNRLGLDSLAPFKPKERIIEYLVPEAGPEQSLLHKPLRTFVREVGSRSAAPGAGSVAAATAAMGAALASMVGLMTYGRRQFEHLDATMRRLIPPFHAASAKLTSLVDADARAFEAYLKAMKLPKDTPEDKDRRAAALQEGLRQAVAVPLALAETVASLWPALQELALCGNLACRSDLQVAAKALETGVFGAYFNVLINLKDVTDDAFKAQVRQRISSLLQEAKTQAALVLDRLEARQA
Procedure: Folic acid binding can be assayed using the microplate thermal shift assay. Bovine liver dihydrofolate reductase (DHFR, Sigma), chicken liver dihydrofolate reductase (DHFR, Sigma), pigeon liver arylamine acetyltransferase (ArAcT, Sigma), and porcine liver formimino glutamic acid transferase (FGT, Sigma) were each dissolved in Buffer A (50 mM HEPES, pH 7.5, 100 mM NaCl) to generate stock solutions at a final concentration of 2 mg/mL. Solutions of dihydrofolic acid (FAH2), methotrexate, nicotinamide adenine dinucleotide phosphate (NADP), were prepared by dissolving solid material into Buffer A immediately prior to use. Dapoxyl™ 12800 solution was prepared by diluting a stock of 20 mM Dapoxyl™, 12800 in dimethyl sulfoxide to the appropriate concentration in Buffer A.
For the thermal shift assay, four 10 μL aliquots of each assay mixture were dispensed into four wells located in different quadrants of an MJ Research 384-well thermocycler plate. 10 μL of mineral oil was then added to each of the four wells to prevent evaporation. Each data point shown was collected by heating the plate at the temperature shown for three minutes, followed by incubation at 25° C. for one minute, followed by UV illumination and collection of the data.

[13] = molecular target: T5, chicken muscle pyruvate kinase (Gallus gallus, UniProt P00548); assay: microplate thermal shift assay of ATP binding, pyruvate kinase; details: 10 mM, standard deviation in parentheses
T5 construct: chicken muscle pyruvate kinase (Sigma); purchased Sigma; host or cells: chicken muscle
T5 sequence (P00548 whole entry): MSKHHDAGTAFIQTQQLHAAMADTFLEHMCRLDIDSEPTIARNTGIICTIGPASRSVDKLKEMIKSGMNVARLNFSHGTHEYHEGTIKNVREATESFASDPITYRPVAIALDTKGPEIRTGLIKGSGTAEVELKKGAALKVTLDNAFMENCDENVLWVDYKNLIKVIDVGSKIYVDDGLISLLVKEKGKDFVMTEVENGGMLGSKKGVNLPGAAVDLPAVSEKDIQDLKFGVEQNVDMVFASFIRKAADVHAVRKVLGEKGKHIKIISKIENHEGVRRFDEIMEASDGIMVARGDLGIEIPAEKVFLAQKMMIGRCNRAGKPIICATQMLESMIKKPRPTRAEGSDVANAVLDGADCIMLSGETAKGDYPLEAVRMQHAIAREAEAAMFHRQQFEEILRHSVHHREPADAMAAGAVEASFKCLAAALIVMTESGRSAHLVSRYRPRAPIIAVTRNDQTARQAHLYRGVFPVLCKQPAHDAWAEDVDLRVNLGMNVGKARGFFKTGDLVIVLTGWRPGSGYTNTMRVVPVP
Procedure: (§1) Bovine muscle myosin (Sigma), bovine heart 3′–5′ cAMP-dependent protein kinase (Sigma), and chicken muscle pyruvate kinase (Sigma) were each dissolved in Buffer A to generate stock solutions at a final concentration of 2 mg/mL. […] 10 μL of mineral oil was then added to each of the four wells to prevent evaporation. Each data point shown was collected by heating the plate at the temperatures shown for three minutes. For example, the plate was heated to a given temperature, and then allowed to cool to 25 ° C. for one minute, followed by UV illumination and collection of the data. Then the plate was heated to the next higher temperature, and so forth. UV illumination was performed using a long wavelength illumination at […]–420 nm, having a peak at 365 nm. Fluorescence was imaged using a CCD camera having a bandpass filter centered at 550 nm.

Bovine muscle myosin = assay: microplate thermal shift assay of ATP binding, myosin
Procedure: as §1

[14] = molecular target: T6, bovine heart 3′–5′ cAMP-dependent protein kinase (Bos taurus, UniProt P00517); assay: microplate thermal shift assay of ATP binding, cAMP-dependent protein kinase
T6 construct: bovine heart 3′–5′ cAMP-dependent protein kinase (Sigma); purchased Sigma; host or cells: bovine heart

[15] = Myosin, 10 mM, standard deviation in parentheses

Compound: Hirugen (hirudin 53-64) (Sigma) (from UniProt P09945 60-71) (peptide)
- ΔTm (human α-thrombin (human) [1]): 5.8 ° K.
- Kd (human α-thrombin (human) [2]): 54 nM
- Kd (human α-thrombin (human) [3]): 731 nM
- Kd (human α-thrombin (human) [4]): 478 nM
- Kd (human α-thrombin (human) [5]): 4250 nM
- ΔTm (human α-thrombin (human) [6]): 4.6 ° K.
- ΔTm (human α-thrombin (human) [7]): 2.6 ° K.

Compound: O=C[C@H](O)[C@@H](O)[C@H](O)[C@H](O)CO [D(+)-glucose]
- effect on thermal stability of D(II) FGFR1 (D(II) FGFR1): stabilize

Compound: OC[C@H]1O[C@@](CO)(O[C@H]2O[C@H](CO)[C@@H](O)[C@H](O)[C@H]2O)[C@@H](O)[C@@H]1O [D(+)-sucrose]
- effect on thermal stability of D(II) FGFR1 (D(II) FGFR1): stabilize

Compound: nicotinamide adenine dinucleotide phosphate [NADP]
- ΔTm ([11]; 5 mM): 2.8 (±0.4)
- ΔTm of ligand complexed with DHFR [8]: 7.5 degrees
- ΔTm ([8]; DHFR (second row, reference Tm 56.6), 5 mM): 3.8 (±0.4)
- ΔTm of ligand complexed with DHFR [9]: 6.3 degrees
- ΔTm ([9]; DHFR (first row, reference Tm 52.47), 5 mM): 3.2 (±0.13)
- ΔTm ([12]; 5 mM): 0.0 (±0.2)

Compound: Nc1ncnc2c1ncn2[C@@H]1O[C@H](COP(=O)(O)OP(=O)(O)OP(=O)(O)O)[C@@H](O)[C@H]1O [ATP, adenosine triphosphate]
- ΔTm at 10000 µM [13]: -0.44 °C
- Tm of the thermal unfolding curve (Bovine muscle myosin; (+)ATP, FIG. 9, control 49.3° C.): 51.4 °C
- Kd (Bovine muscle myosin; FIG. 9): 440000 nM
- ΔTm (Bovine muscle myosin; FIG. 9): 2.1 °C
- ΔTm (Bovine muscle myosin; [15]): 2.2 (±0.4) ° C.

Compound: Nc1ncnc2c1ncn2[C@@H]1O[C@H](COP(=O)(O)OP(=O)(O)OP(O)(O)=S)[C@@H](O)[C@H]1O [ATP-γ-S, adenosinetriphosphate-γ-S]
- ΔTm [13]: 0.8 (±0.11) ° C.
- ΔTm (Bovine muscle myosin; [15]): 0.0 (±0.2) ° C.
- ΔTm ([14]; 3′–5′ cAMP Protein kinase, 10 mM, standard deviation in parentheses): 5.6 (±1.7) ° C.
- Tm of the thermal unfolding curve ([14]; (+) ATP-γ-S, FIG. 10, control 46.2° C.): 51.8 °C
- Kd ([14]; FIG. 10): 200000 nM
- ΔTm ([14]; FIG. 10): 5.6 °C

Compound: CN(Cc1cnc2nc(N)nc(N)c2n1)c1ccc(C(=O)N[C@@H](CCC(=O)O)C(=O)O)cc1 [Methotrexate, methotrexate]
- ΔTm ([11]; 100 μM): 1.0 (±0.4)
- ΔTm at 100 µM [12]: 0.9 °C

Compound: Nc1nc2c(c(=O)[nH]1)N=C(CNc1ccc(C(=O)N[C@@H](CCC(=O)O)C(=O)O)cc1)CN2 [FAH2, dihydrofolic acid]
- ΔTm ([11]; 100 μM): −1.8 (±0.5)
- ΔTm at 100 µM [12]: 3.62 °C

Results, then the compound that gave them:

- thermal shift of D(II) FGFR1 (D(II) FGFR1; largest shift): about 11 °C
Compound: O=P(O)(O)OP(=O)(O)OP(=O)(O)O [tri-polyphosphate]

- ΔTm of ligand complexed with DHFR [8]: 11.9 degrees
- ΔTm of ligand complexed with DHFR [9]: 9.7 degrees
- Tm of the thermal unfolding curve ([10]; (+) NADPH 10 mM, control 50.8° C.): 53.8 °C
- Kd [10]: 700 nM
- ΔTm ([10]; NADPH 10 mM): 3 °C
Compound: NC(=O)C1=CN([C@@H]2O[C@H](COP(=O)(O)OP(=O)(O)OC[C@H]3O[C@@H](n4cnc5c(N)ncnc54)[C@H](OP(=O)(O)O)[C@@H]3O)[C@@H](O)[C@H]2O)C=CC1 [NADPH, nicotinamide adenine dinucleotide phosphate-reduced form]

- effect on thermal stability of D(II) FGFR1 (D(II) FGFR1): stabilize
Compound: OC[C@@H](O)[C@@H](O)[C@H](O)[C@@H](O)CO [sorbitol]

- effect on thermal stability of D(II) FGFR1 (D(II) FGFR1): stabilize
Compound: OC[C@@H](O)[C@H](O)[C@@H](O)CO [xylitol]
